According to patent US12521342B2, “Fast disintegrating tablet” (CUBOPHARM PTY LTD, priority 2017, dated 2026):
Read-outs that look alike come from different tables or passages of the source.

Tests used:
[1] = pig, pH 7.4
[2] = cited from earlier work

Total rosuvastatin absorbed per minute ([1]; 0.4 mg/1.5 ml) | Total rosuvastatin absorbed per minute ([1]; 0.8 mg/1.5 ml) | SMILES | logP [2]
0.6 ng/mL | 0.3 ng/mL | CC(C)c1nc(N(C)S(C)(=O)=O)nc(-c2ccc(F)cc2)c1/C=C/[C@@H](O)C[C@@H](O)CC(=O)O [Rosuvastatin] | 
 |  | CNCC(O)c1ccc(O)c(O)c1 (stereo not drawn) [Adrenaline] | −0.5 to −1.2
